Laboratory results published in patent US5591758A, “Organic nitrates, processes for their preparation and their use in the treatment of cardiovascular diseases” (Laboratoires Hoechst, SA, priority 1991, dated 1997).
Counter-ions that a name gives are not always drawn.

System: isolated pulmonary vessel
Test: Relaxant activity on blood vessels isolated from guinea pigs (pulmonary artery)
Settings: Cavia porcellus; guinea pig pulmonary artery, K+ depolarised, Ca2+ contraction; read-out: IC50 (relaxation of 50%)
Method: Determination of the relaxant activity of the compounds according to the invention on blood vessels isolated from guinea pigs.
The pulmonary artery of male guinea pigs (350-500 g) is isolated and cut into spiral tracts (1 mm wide, 15 mm long). […] After having removed the calcium from the tissues (Tyrode without calcium and 0.2 mM EDTA), the tracts are depolarised in the presence of a concentrated solution of K^+ ions (40 mM), which is produced by replacing the NaCl by equimolar amounts of KCl, and a contraction of long duration is then induced by Ca^2+ ions (0.5 mM).
The compounds studied are then introduced into the organ cell in increasing concentrations.
Each compound is tested on at least four vessel spiral tracts.

Compound | IC50 [µM]
O=C(CNC(=O)[C@@H]1CSCN1)N[C@H]1CO[C@H]2[C@@H]1OC[C@@H]2O[N+](=O)[O-] [Compound 46, 5-[[2-[[(4-L-Thiazolidinyl)carbonyl]amino]-1oxoethyl]amino]-5-deoxy-2-O-nitro-1,4:3,6-dianhydro-L-iditol monohydrochloride] | 38
O=[N+]([O-])O[C@@H]1CO[C@H]2[C@@H]1OC[C@@H]2O [IS-5-MN, isosorbide 5-mononitrate, reference compound] | > 100
